Test results published in patent US9765056B2, “Indole and pyrrole compounds, a process for their preparation and pharmaceutical compositions containing them” (LES LABORATOIRES SERVIER, priority 2013, dated 2017).
Where a name gives a salt, the structure may show the parent alone.

Key:
[1] = tested on: RS4;11 leukaemia tumour line; test: In vitro cytotoxicity, Microculture Tetrazolium Assay (MTT); type: cell-based; details: Homo sapiens; RS4;11 cells, 48 hours exposure
Experimental: The cytotoxicity studies were carried out on the RS4;11 leukaemia tumour line.
The cells are distributed onto microplates and exposed to the test compounds for 48 hours. The cell viability is then quantified by a colorimetric assay, the Microculture Tetrazolium Assay (Cancer Res., 1987, 47, 939-942).

Bcl-2 protein = Bcl-2 protein (histag-Bcl-2, UniProtKB P10415) (Homo sapiens (Human), UniProt P10415); test: Inhibition of Bcl-2 by the fluorescence polarisation technique; type: binding; details: fluorescence polarisation test; method A, or method B where underlined (underlining not visible); read-out: IC50 (nM) Bcl-2 FP
Description: Inhibition of Bcl-2 by the fluorescence polarisation technique

Sequence of Bcl-2 protein (P10415 whole entry): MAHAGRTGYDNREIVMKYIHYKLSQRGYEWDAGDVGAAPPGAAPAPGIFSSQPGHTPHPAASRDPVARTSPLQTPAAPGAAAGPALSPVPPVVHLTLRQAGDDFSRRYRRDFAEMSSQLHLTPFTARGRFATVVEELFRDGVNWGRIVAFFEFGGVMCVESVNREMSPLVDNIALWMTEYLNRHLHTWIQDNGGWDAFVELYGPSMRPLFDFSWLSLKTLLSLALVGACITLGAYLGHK

Row | Structure (SMILES) | IC50 [1] [nM] | IC50 (Bcl-2 protein) [nM]
1 | Cc1cc(C(=O)N(c2ccc(O)cc2)c2ccc(O)cc2)cn1-c1cc2c(cc1C(=O)N1Cc3ccccc3C[C@H]1CN1CCN(C)CC1)OCO2 [Example 83, N,N-bis(4-Hydroxyphenyl)-5-methyl-1-(6-{[(3S)-3-[(4-methylpiperazin-1-yl)methyl]-3,4-dihydroisoquinolin-2(1H)-yl]carbonyl}-1,3-benzodioxol-5-yl)-1H-pyrrole-3-carboxamide] | 350 | 3.7
2 | NC[C@@H]1Cc2ccccc2CN1C(=O)c1cc(NCc2ccccc2)ccc1-n1nc(C(=O)N(c2ccccc2)c2ccccc2)c2ccccc21 [Example 142, 1-{2-[(3S)-3-(Aminomethyl)-1,2,3,4-tetrahydroisoquinoline-2-carbonyl]-4-(benzylamino)phenyl}-N,N-diphenyl-1H-indazole-3-carboxamide] | 2290 | 70.6
3 | COc1ccc(N(C(=O)c2cn(-c3cc4c(cc3C(=O)N3Cc5ccccc5C[C@H]3CN3CCN(C)CC3)OCO4)c3ccccc23)c2ccc(O)cc2)cc1 [Example 49, N-(4-Hydroxyphenyl)-N-(4-methoxyphenyl)-1-(6-{[(3S)-3-[(4-methylpiperazin-1-yl)methyl]-3,4-dihydroisoquinolin-2(1H)-yl]carbonyl}-1,3-benzodioxol-5-yl)-1H-indole-3-carboxamide] | 136 | 13.1
4 | CN1CCN(C[C@@H]2Cc3ccccc3CN2C(=O)c2cc3c(cc2-n2cc(C(=O)N(c4ccc(O)cc4)c4ccc5[nH]ccc5c4)c4cc(Cl)ccc42)OCO3)CC1 [Example 88, 5-Chloro-N-(4-hydroxyphenyl)-N-(1H-indol-5-yl)-1-(6-{[(3S)-3-[(4-methylpiperazin-1-yl)methyl]-3,4-dihydroisoquinolin-2(1H)-yl]carbonyl}-1,3-benzodioxol-5-yl)-1H-indole-3-carboxamide] | 541 | 19.6
5 | CN(C)C[C@@H]1Cc2ccccc2CN1C(=O)c1ccc(Cl)cc1-n1cc(C(=O)N(c2ccccc2)c2ccc(O)cc2)c2ccccc21 [Example 179, 1-{5-Chloro-2-[(3S)-3-[(dimethylamino)methyl]-1,2,3,4-tetrahydroisoquinoline-2-carbonyl]phenyl}-N-(4-hydroxyphenyl)-N-phenyl-1H-indole-3-carboxamide hydrochloride] | 886 | 18.1
6 | CN1CCN(C[C@@H]2Cc3ccccc3CN2C(=O)c2ccccc2-n2cc(C(=O)N(c3ccccc3)c3ccc(O)cc3)c3ccccc32)CC1 [Example 155, N-(4-Hydroxyphenyl)-1-{2-[(3S)-3-[(4-methylpiperazin-1-yl)methyl]-1,2,3,4-tetrahydroisoquinoline-2-carbonyl}phenyl]-N-phenyl-1H-indole-3-carboxamide] | 246 | 13.2
7 | Cc1cc(C(=O)N(c2ccc(O)cc2)c2ccc3[nH]ccc3c2)cn1-c1cc(Cl)ccc1C(=O)N1Cc2ccccc2C[C@H]1CN1CCN(C)CC1 [Example 86, 1-(5-Chloro-2-{[(3S)-3-[(4-methylpiperazin-1-yl)methyl]-3,4-dihydroisoquinolin-2(1H)-yl]carbonyl}phenyl)-N-(4-hydroxyphenyl)-N-(1H-indol-5-yl)-5-methyl-1H-pyrrole-3-carboxamide] | 67.7 | 5.4
8 | NC[C@@H]1Cc2ccccc2CN1C(=O)c1cc2c(cc1-n1cc(C(=O)N(c3ccccc3)c3ccc(O)cc3)c3ccccc31)OCO2 [Example 153, 1-{6-[(3S)-3-(Aminomethyl)-1,2,3,4-tetrahydroisoquinoline-2-carbonyl]-2H-1,3-benzodioxol-5-yl}-N-(4-hydroxyphenyl)-N-phenyl-1H-indole-3-carboxamide] | 237 | 286
9 | NC[C@@H]1Cc2ccccc2CN1C(=O)c1ccccc1-n1nc(C(=O)N(c2ccccc2)c2ccc(O)cc2)c2ccccc21 [Example 148, 1-{2-[(3S)-3-(Aminomethyl)-1,2,3,4-tetrahydroisoquinoline-2-carbonyl]-phenyl}-N-(4-hydroxyphenyl)-N-phenyl-1H-indazole-3-carboxamide] | 1170 | 28.3
10 | Cc1ccc(N(C(=O)c2cn(-c3cc(Cl)ccc3C(=O)N3Cc4ccccc4C[C@H]3CN3CCN(C)CC3)c3ccccc23)c2ccc(O)cc2)cc1 [Example 74, 1-(5-Chloro-2-{[(3S)-3-[(4-methylpiperazin-1-yl)methyl]-3,4-dihydroisoquinolin-2(1H)-yl]carbonyl}phenyl)-N-(4-hydroxyphenyl)-N-(4-methylphenyl)-1H-indole-3-carboxamide] | 162 | 4.2
11 | O=C(c1cn(-c2cc3c(cc2C(=O)N2Cc4ccccc4C[C@H]2CN2CCCCC2)OCO3)c2ccccc12)N(c1ccccc1)c1ccc(O)cc1 [Example 174, N-(4-Hydroxyphenyl)-N-phenyl-1-{6-[(3S)-3-(piperidin-1-ylmethyl)-1,2,3,4-tetrahydroisoquinoline-2-carbonyl]-2H-1,3-benzodioxol-5-yl}-1H-indole-3-carboxamide] | 402 | 41.2
12 | COc1ccc(C(=O)N2Cc3ccccc3C[C@H]2CN2CCCCC2)c(-n2cc(C(=O)N(c3ccccc3)c3ccc(O)cc3)c3ccccc32)c1 [Example 169, N-(4-Hydroxyphenyl)-1-{5-methoxy-2-[(3S)-3-(piperidin-1-ylmethyl)-1,2,3,4-tetrahydroisoquinoline-2-carbonyl]phenyl}-N-phenyl-1H-indole-3-carboxamide hydrochloride] | 854 | 108
13 | Cc1cc(C(=O)N(c2ccccc2)c2ccc(O)cc2)cn1-c1cc(Br)ccc1C(=O)N1Cc2ccccc2C[C@H]1CN1CCN(C)CC1 [Example 22, 1-(5-Bromo-2-{[(3S)-3-[(4-methylpiperazin-1-yl)methyl]-3,4-dihydroisoquinolin-2(1H)-yl]carbonyl}phenyl)-N-(4-hydroxyphenyl)-5-methyl-N-phenyl-1H-pyrrole-3-carboxamide] | 142 | 10.7
14 | CN1CCN(C[C@@H]2Cc3ccccc3CN2C(=O)c2cc3c(cc2-n2cc(C(=O)N(c4ccccc4)c4ccccc4)c4ccccc42)OCO3)CC1 [Example 177, 1-{6-[(3S)-3-[(4-Methylpiperazin-1-yl)methyl]-1,2,3,4-tetrahydroisoquinoline-2-carbonyl]-2H-1,3-benzodioxol-5-yl}-N,N-diphenyl-1H-indole-3-carboxamide dihydrochloride] | 568 | 18.8
15 | Cc1cc(C(=O)N(c2ccc(O)cc2)c2cnc3c(ccn3C)c2)cn1-c1cc2c(cc1C(=O)N1Cc3ccccc3C[C@H]1CN1CCOCC1)OCO2 [Example 206, N-(4-Hydroxyphenyl)-5-methyl-N-(1-methyl-1H-pyrrolo[2,3-b]pyridin-5-yl)-1-(6-{[(3S)-3-(morpholin-4-ylmethyl)-3,4-dihydroisoquinolin-2(1H)-yl]-carbonyl}-1,3-benzodioxol-5-yl)-1H-pyrrole-3-carboxamide hydrochloride] | 72.4 | 16.7
16 | CN(C)C[C@@H]1Cc2ccccc2CN1C(=O)c1ccccc1-n1cc(C(=O)N(c2ccccc2)c2ccc(O)cc2)c2ccccc21 [Example 143, 1-{2-[(3S)-3-[(Dimethylamino)methyl]-1,2,3,4-tetrahydroisoquinoline-2-carbonyl]phenyl}-N-(4-hydroxyphenyl)-N-phenyl-1H-indole-3-carboxamide] | 533 | 71.5
